Source: PubChem BioAssay AID248 (DTP/NCI, 2004)
Toxic doses and inconclusive results are not listed. Rule as the data show it: active = T/C of 150% or more; inactive = T/C below 125%. Peptide text beside a SMILES is read from it. * marks the point of attachment. Trt = c1ccc(C(c2ccccc2)(c2ccccc2)*)cc1; Boc = CC(C)(C)OC(=O)*

System: L1210 leukemia ip in BDF1 mice, survival T/C
Assay: NCI In Vivo Anticancer Drug Screen. Data for tumor model L1210 Leukemia (intraperitoneal) in B6D2F1 (BDF1) mice
Details: endpoint: mean survival time, higher = longer survival
Outline: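 Read-out is survival time, reported as the treated-group measurement over the vehicle-control measurement.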

[1] = dose: 100.0 mg/kg/injection, schedule: Q01DX001 (ip), vehicle: carboxymethylcellulose (CMC)
[2] = dose: 200.0 mg/kg/injection, schedule: Q01DX001 (ip), vehicle: carboxymethylcellulose (CMC)
[3] = dose: 400.0 mg/kg/injection, schedule: Q01DX001 (ip), vehicle: carboxymethylcellulose (CMC)
[4] = dose: 100.0 mg/kg/injection, schedule: Q04DX003 (ip), vehicle: Klucel (hydroxypropylcellulose) (HPC)
[5] = dose: 200.0 mg/kg/injection, schedule: Q04DX003 (ip), vehicle: Klucel (hydroxypropylcellulose) (HPC)
[6] = dose: 400.0 mg/kg/injection, schedule: Q04DX003 (ip), vehicle: Klucel (hydroxypropylcellulose) (HPC)
[7] = dose: 12.5 mg/kg/injection, schedule: Q01DX009 (ip), vehicle: Klucel (hydroxypropylcellulose) (HPC)
[8] = dose: 25.0 mg/kg/injection, schedule: Q01DX009 (ip), vehicle: Klucel (hydroxypropylcellulose) (HPC)
[9] = dose: 50.0 mg/kg/injection, schedule: Q01DX009 (ip), vehicle: Klucel (hydroxypropylcellulose) (HPC)
[10] = dose: 100.0 mg/kg/injection, schedule: Q01DX001 (ip), vehicle: saline
[11] = dose: 200.0 mg/kg/injection, schedule: Q01DX001 (ip), vehicle: saline
[12] = dose: 400.0 mg/kg/injection, schedule: Q01DX001 (ip), vehicle: saline
[13] = dose: 100.0 mg/kg/injection, schedule: Q01DX001 (ip), vehicle: other
[14] = dose: 200.0 mg/kg/injection, schedule: Q01DX001 (ip), vehicle: other
[15] = dose: 400.0 mg/kg/injection, schedule: Q01DX001 (ip), vehicle: other

Measured: T/C

CCOP(=O)(Nc1ccc2c(c1)Cc1cc(Cl)ccc1-2)OCC
inactive: dose: 50.0 mg/kg/injection, schedule: Q01DX001 (ip), vehicle: carboxymethylcellulose (CMC) 97 % of control | [1] 105 % of control | [2] 97 % of control | [3] 92 % of control

CCOC(=O)C(C)C(C)(O)c1ccccc1 (configuration not stated)
inactive: dose: 100.0 mg/kg/injection, schedule: Q01DX009 (ip), vehicle: saline with Tween-80 95 % of control | dose: 200.0 mg/kg/injection, schedule: Q01DX009 (ip), vehicle: saline with Tween-80 109 % of control | dose: 400.0 mg/kg/injection, schedule: Q01DX009 (ip), vehicle: saline with Tween-80 96 % of control

Cc1ccc(S(=O)(=O)N(CC(=O)O)c2cccc(Cl)c2)cc1
inactive: [4] 91 % of control | [5] 96 % of control | [6] 100 % of control

O=C(CC(=O)OCc1ccc([N+](=O)[O-])cc1)OCc1ccc([N+](=O)[O-])cc1
inactive: dose: 25.0 mg/kg/injection, schedule: Q01DX001 (ip), vehicle: Klucel (hydroxypropylcellulose) (HPC) 104 % of control | dose: 50.0 mg/kg/injection, schedule: Q01DX001 (ip), vehicle: Klucel (hydroxypropylcellulose) (HPC) 95 % of control | dose: 100.0 mg/kg/injection, schedule: Q01DX001 (ip), vehicle: Klucel (hydroxypropylcellulose) (HPC) 92 % of control

[NH-]c1ccccc1C(=O)O.[NH-]c1ccccc1C(=O)O.[Zn+2]
inactive: [7] 98 % of control | [8] 97 % of control | dose: 25.0 mg/kg/injection, schedule: Q04DX003 (ip), vehicle: Klucel (hydroxypropylcellulose) (HPC) 97 % of control | [9] 93 % of control | dose: 50.0 mg/kg/injection, schedule: Q04DX003 (ip), vehicle: Klucel (hydroxypropylcellulose) (HPC) 90 % of control | [4] 94 % of control

O=C(NC(Cc1ccccc1)C(=O)NCCCCCCCCCCNC(=O)C(Cc1ccccc1)NC(=O)OCc1ccccc1)OCc1ccccc1 (configuration not stated)
inactive: dose: 50.0 mg/kg/injection, schedule: Q01DX001 (ip), vehicle: saline 92 % of control | [10] 98 % of control | [11] 110 % of control | [12] 104 % of control

c1ccc(N/N=C2/CCN3CCCc4cccc2c43)cc1
inactive: dose: 3.0 mg/kg/injection, schedule: Q01DX009 (ip), vehicle: DMSO 98 % of control | dose: 6.0 mg/kg/injection, schedule: Q01DX009 (ip), vehicle: DMSO 96 % of control | dose: 12.0 mg/kg/injection, schedule: Q01DX009 (ip), vehicle: DMSO 95 % of control | dose: 12.5 mg/kg/injection, schedule: Q04DX003 (ip), vehicle: DMSO 101 % of control | dose: 25.0 mg/kg/injection, schedule: Q01DX009 (ip), vehicle: DMSO 89 % of control | dose: 25.0 mg/kg/injection, schedule: Q04DX003 (ip), vehicle: DMSO 100 % of control | dose: 50.0 mg/kg/injection, schedule: Q04DX003 (ip), vehicle: DMSO 104 % of control | dose: 100.0 mg/kg/injection, schedule: Q04DX003 (ip), vehicle: gum acacia 95 % of control

O=C1C(NCc2c(O)ccc3ccccc23)CON1C(c1ccccc1)(c1ccccc1)c1ccccc1 (configuration not stated)
inactive: dose: 75.0 mg/kg/injection, schedule: Q04DX003 (ip), vehicle: saline 89 % of control | dose: 300.0 mg/kg/injection, schedule: Q04DX003 (ip), vehicle: saline 91 % of control

Nc1nc2c([nH]c(=O)n2C2OC(CO)C(O)C2O)c(=O)n1N (configuration not stated)
inactive: [10] 102 % of control | [11] 101 % of control | [12] 96 % of control

O=NN1CCCCCC1C(=O)O (configuration not stated)
inactive: [10] 108 % of control | [11] 102 % of control

Clc1ncc(Br)c(Cl)n1
inactive: dose: 6.25 mg/kg/injection, schedule: Q01DX009 (ip), vehicle: Klucel (hydroxypropylcellulose) (HPC) 102 % of control | [7] 102 % of control | [8] 101 % of control | dose: 100.0 mg/kg/injection, schedule: Q04DX003 (ip), vehicle: other 119 % of control | dose: 200.0 mg/kg/injection, schedule: Q04DX003 (ip), vehicle: other 90 % of control

Brc1cccc(Br)n1
inactive: dose: 50.0 mg/kg/injection, schedule: Q01DX001 (ip), vehicle: other 101 % of control | [13] 121 % of control | dose: 100.0 mg/kg/injection, schedule: Q04DX002 (ip), vehicle: saline with Tween-80 106 % of control | [14] 97 % of control | dose: 200.0 mg/kg/injection, schedule: Q04DX002 (ip), vehicle: saline with Tween-80 93 % of control | [15] 101 % of control | dose: 400.0 mg/kg/injection, schedule: Q04DX002 (ip), vehicle: saline with Tween-80 106 % of control

OCC1CCC(n2cnc3c(=S)nc[nH]c32)C1 (configuration not stated)
inactive: [1] 102 % of control | [2] 102 % of control | [3] 96 % of control

CC(C)(C)OC(=O)NCCCCC(NC(=O)CNC(=O)C(CSC(c1ccccc1)(c1ccccc1)c1ccccc1)NC(=O)OC(C)(C)C)C(=O)O (configuration not stated) (Boc-Cys(Trt)-Gly-Lys(Boc)-OH; configuration not given here)
inactive: dose: 25.0 mg/kg/injection, schedule: Q04DX003 (ip), vehicle: saline with Tween-80 96 % of control | dose: 50.0 mg/kg/injection, schedule: Q04DX003 (ip), vehicle: saline with Tween-80 98 % of control | dose: 100.0 mg/kg/injection, schedule: Q04DX003 (ip), vehicle: saline with Tween-80 94 % of control

N/N=C(\c1ccccc1)c1ccncc1
inactive: dose: 44.0 mg/kg/injection, schedule: Q01DX Z (ip), vehicle: methylcellulose (MC) 106 % of control | dose: 66.0 mg/kg/injection, schedule: Q01DX Z (ip), vehicle: methylcellulose (MC) 90 % of control | dose: 100.0 mg/kg/injection, schedule: Q01DX Z (ip), vehicle: methylcellulose (MC) 87 % of control

c1ccc(N/N=C(/C[n+]2cc3ccccc3c3ccccc32)c2ccccc2)cc1
inactive: [7] 100 % of control | [8] 89 % of control | [9] 102 % of control | dose: 100.0 mg/kg/injection, schedule: Q01DX009 (ip), vehicle: Klucel (hydroxypropylcellulose) (HPC) 100 % of control

CCCc1nc2ccccc2c(=O)n1/N=C/c1ccc(OC)cc1
inactive: dose: 100.0 mg/kg/injection, schedule: Q04DX002 (ip), vehicle: Klucel (hydroxypropylcellulose) (HPC) 96 % of control | dose: 200.0 mg/kg/injection, schedule: Q04DX002 (ip), vehicle: Klucel (hydroxypropylcellulose) (HPC) 99 % of control | dose: 400.0 mg/kg/injection, schedule: Q04DX002 (ip), vehicle: Klucel (hydroxypropylcellulose) (HPC) 101 % of control

CCN(CC)C(=S)[S][Sn]([S]C(=S)N(CC)CC)([c]1ccccc1)[c]1ccccc1
inactive: [13] 97 % of control | [14] 104 % of control | [15] 112 % of control

O=S(CCCl)c1ccccc1 (configuration not stated)
inactive: [4] 98 % of control | [5] 98 % of control | [6] 98 % of control

CC(C)CCCC(C)C1CCC2C3CCC4CN(N=O)CCC4C3CCC12C (configuration not stated)
inactive: dose: 100.0 mg/kg/injection, schedule: Q01DX001 (sc), vehicle: steriod suspending solution 102 % of control | dose: 177.6 mg/kg/injection, schedule: Q01DX001 (sc), vehicle: steriod suspending solution 95 % of control | dose: 200.0 mg/kg/injection, schedule: Q01DX001 (sc), vehicle: steriod suspending solution 102 % of control | dose: 266.8 mg/kg/injection, schedule: Q01DX001 (sc), vehicle: steriod suspending solution 98 % of control | dose: 600.0 mg/kg/injection, schedule: Q01DX001 (sc), vehicle: steriod suspending solution 98 % of control
